From ChEMBL document CHEMBL5120890, “Untapped Pharmaceutical Potential of 4,5,4'-Trihydroxy-3,3'-dimethoxybibenzyl for Regulating Obesity: A Cell-Based Study with a Focus on Terminal Differentiation in Adipogenesis” (J Nat Prod, 2022)
Activity calls are given as the source filed them. No cut-off for these calls is given here.

Legend:
[1] = test system: 3T3-L1; assay: Down regulation of C/EBpalpha mRNA expression in mouse 3T3-L1 cells at 0.5 to 5 uM after 48 hrs by RT-qPCR analysis; format: functional, cell-based; conditions: dose 0.5-5 µM, DDE = dose-dependent effect
[2] = test system: 3T3-L1; assay: Effect on Cyclin D3 protein expression in mouse 3T3-L1 cells at 0.5 to 5 uM after 18 hrs by western blot analysis; format: functional, cell-based; conditions: dose 0.5-5 µM
[3] = test system: 3T3-L1; assay: Inhibition of preadipocyte differentiation in mouse 3T3-L1 cells assessed as increase in glycerol release in early differentiation at 0.5 to 5 uM incubated for 8 days by colorimetric assay; format: functional, cell-based; conditions: dose 0.5-5 µM, time 8.0 day, DDE = dose-dependent effect
[4] = test system: 3T3-L1; assay: Down regulation of FAS protein expression in mouse 3T3-L1 cells in early differentiation at 0.5 to 5 uM after 8 days by western blot analysis; format: functional, cell-based; conditions: dose 0.5-5 µM, time 8.0 day
[5] = test system: PCS-210-010; assay: Inhibition of preadipocyte differentiation in human PCS-210-010 cells assessed as reduction in triglyceride accumulation in early differentiation at 0.5 to 5 uM incubated for 8 days by colorimetric assay; format: functional, cell-based; conditions: dose 0.5-5 µM, time 8.0 day, DDE = dose-dependent effect
[6] = molecular target: RAC-alpha serine/threonine-protein kinase (Mus musculus) (UniProt P31750); assay: Inhibition of AKT in mouse 3T3-L1 cells assessed as reduction in AKT phosphorylation in early differentiation at 0.5 to 5 uM after 48 hrs by Western blot analysis; format: cell-based; conditions: dose 0.5-5 µM
[7] = test system: PCS-210-010; assay: Inhibition of preadipocyte differentiation in human PCS-210-010 cells assessed as reduction in lipid droplet accumulation in maturation at 0.5 to 5 uM incubated for 8 days by Oil Red O staining based inverted optical microscopic analysis; format: functional, cell-based; conditions: dose 0.5-5 µM, time 8.0 day
[8] = test system: 3T3-L1; assay: Down regulation of FABP4 protein expression in mouse 3T3-L1 cells in maturation at 0.5 to 5 uM after 10 days by western blot analysis; format: functional, cell-based; conditions: dose 0.5-5 µM, time 10.0 day
[9] = test system: 3T3-L1; assay: Down regulation of CDK2 protein expression in mouse 3T3-L1 cells at 0.5 to 5 uM after 18 hrs by western blot analysis; format: functional, cell-based; conditions: dose 0.5-5 µM
[10] = test system: 3T3-L1; assay: Inhibition of preadipocyte differentiation in mouse 3T3-L1 cells assessed as increase in glycerol release in maturation at 0.5 to 5 uM incubated for 8 days by colorimetric assay; format: functional, cell-based; conditions: dose 0.5-5 µM, time 8.0 day, DDE = dose-dependent effect
[11] = test system: 3T3-L1; assay: Down regulation of adiponectin mRNA expression in mouse 3T3-L1 cells in maturation at 0.5 to 5 uM after 10 days by RT-qPCR analysis; format: functional, cell-based; conditions: dose 0.5-5 µM, time 10.0 day
[12] = molecular target: T1, 5'-AMP-activated protein kinase (Mus musculus) (UniProt Q5EG47+Q8BRK8+Q6PAM0+O54950+Q91WG5+Q9R078+Q8BGM7); assay: Activation of AMPK in mouse 3T3-L1 cells assessed as increase in AMPKalpha phosphorylation in maturation at 0.5 to 5 uM after 48 hrs by Western blot analysis; format: cell-based; conditions: filed as activator, dose 0.5-5 µM
[13] = test system: 3T3-L1; assay: Down regulation of adiponectin protein expression in mouse 3T3-L1 cells in early differentiation at 0.5 to 5 uM after 8 days by western blot analysis; format: functional, cell-based; conditions: dose 0.5-5 µM, time 8.0 day
[14] = test system: 3T3-L1; assay: Down regulation of C/EBpalpha protein expression in mouse 3T3-L1 cells at 0.5 to 5 uM after 48 hrs by western blot analysis; format: functional, cell-based; conditions: dose 0.5-5 µM, DDE = dose-dependent effect
[15] = test system: 3T3-L1; assay: Inhibition of preadipocyte differentiation in mouse 3T3-L1 cells assessed as reduction in lipid droplet accumulation in maturation at 0.5 to 5 uM incubated for 8 days by Oil Red O staining based inverted optical microscopic analysis; format: functional, cell-based; conditions: dose 0.5-5 µM, time 8.0 day
[16] = Cytotoxicity against human PCS-210-010 pre-adipocytes assessed as reduction in cell viability at >=25 uM after 48 hrs by MTT assay; format: toxicity, cell-based; conditions: pcs-210-010, 48 h
[17] = test system: 3T3-L1; assay: Down regulation of Cyclin D1 protein expression in mouse 3T3-L1 cells at 0.5 to 5 uM after 18 hrs by western blot analysis; format: functional, cell-based; conditions: dose 0.5-5 µM
[18] = test system: 3T3-L1; assay: Inhibition of AKT/GSK3beta signalling pathway in mouse 3T3-L1 cells assessed as reduction in GSK3beta phosphorylation in maturation at 0.5 to 5 uM after 48 hrs by Western blot analysis; format: cell-based; conditions: dose 0.5-5 µM
[19] = test system: 3T3-L1; assay: (§1) Cytotoxicity against mouse 3T3-L1 pre-adipocytes assessed as reduction in cell viability after 48 hrs by MTT assay; format: toxicity, cell-based; conditions: 3t3-l1, 48 h, time 48 hrs
[20] = as §1; format: toxicity, cell-based; conditions: 3T3-L1 pre-adipocytes
[21] = molecular target: T1, 5'-AMP-activated protein kinase (Mus musculus); assay: Activation of AMPK in mouse 3T3-L1 cells assessed as increase in AMPKalpha phosphorylation in early differentiation at 0.5 to 5 uM after 48 hrs by Western blot analysis; format: cell-based; conditions: filed as activator, dose 0.5-5 µM
[22] = test system: 3T3-L1; assay: Inhibition of preadipocyte differentiation in mouse 3T3-L1 cells assessed as reduction in lipid droplet accumulation in early differentiation at 0.5 to 5 uM incubated for 8 days by Oil Red O staining based inverted optical microscopic analysis; format: functional, cell-based; conditions: dose 0.5-5 µM, time 8.0 day
[23] = test system: 3T3-L1; assay: Down regulation of adiponectin protein expression in mouse 3T3-L1 cells in maturation at 0.5 to 5 uM after 10 days by western blot analysis; format: functional, cell-based; conditions: dose 0.5-5 µM, time 10.0 day
[24] = molecular target: T1, 5'-AMP-activated protein kinase (Mus musculus); assay: Activation of AMPK in mouse 3T3-L1 cells assessed as increase in AMPKbeta phosphorylation in early differentiation at 0.5 to 5 uM after 48 hrs by Western blot analysis; format: cell-based; conditions: filed as activator, dose 0.5-5 µM
[25] = test system: 3T3-L1; assay: Down regulation of LPL mRNA expression in mouse 3T3-L1 cells in maturation at 0.5 to 5 uM after 10 days by RT-qPCR analysis; format: functional, cell-based; conditions: dose 0.5-5 µM, time 10.0 day
[26] = test system: 3T3-L1; assay: Cytotoxicity against mouse 3T3-L1 pre-adipocytes assessed as reduction in cell viability at >=25 uM after 48 hrs by MTT assay; format: toxicity, cell-based; conditions: 3t3-l1, 48 h
[27] = test system: 3T3-L1; assay: Cytotoxicity against mouse 3T3-L1 pre-adipocytes assessed as reduction in cell viability at >=10 uM after 48 hrs by MTT assay; format: toxicity, cell-based; conditions: 3t3-l1, 48 h
[28] = test system: 3T3-L1; assay: Down regulation of PPARG protein expression in mouse 3T3-L1 cells at 0.5 to 5 uM after 48 hrs by western blot analysis; format: functional, cell-based; conditions: dose 0.5-5 µM, DDE = dose-dependent effect
[29] = test system: 3T3-L1; assay: Down regulation of FAS mRNA expression in mouse 3T3-L1 cells in early differentiation at 0.5 to 5 uM after 8 days by RT-qPCR analysis; format: functional, cell-based; conditions: dose 0.5-5 µM, time 8.0 day
[30] = test system: PCS-210-010; assay: Inhibition of preadipocyte differentiation in human PCS-210-010 cells assessed as reduction in lipid droplet accumulation in early differentiation at 0.5 to 5 uM incubated for 8 days by Oil Red O staining based inverted optical microscopic analysis; format: functional, cell-based; conditions: dose 0.5-5 µM, time 8.0 day
[31] = test system: 3T3-L1; assay: Inhibition of preadipocyte differentiation in mouse 3T3-L1 cells assessed as reduction in triglyceride accumulation in maturation at 0.5 to 5 uM incubated for 8 days by colorimetric assay; format: functional, cell-based; conditions: dose 0.5-5 µM, time 8.0 day, DDE = dose-dependent effect
[32] = Cytotoxicity against human PCS-210-010 pre-adipocytes assessed as reduction in cell viability after 48 hrs by MTT assay; format: toxicity, cell-based
[33] = test system: 3T3-L1; assay: Down regulation of PL1N1 protein expression in mouse 3T3-L1 cells in maturation at 0.5 to 5 uM after 10 days by western blot analysis; format: functional, cell-based; conditions: dose 0.5-5 µM, time 10.0 day
[34] = test system: 3T3-L1; assay: Down regulation of FAS protein expression in mouse 3T3-L1 cells in maturation at 0.5 to 5 uM after 10 days by western blot analysis; format: functional, cell-based; conditions: dose 0.5-5 µM, time 10.0 day
[35] = test system: 3T3-L1; assay: Upregulation of p18 protein expression in mouse 3T3-L1 cells at 0.5 to 5 uM after 18 hrs by western blot analysis; format: functional, cell-based; conditions: dose 0.5-5 µM

Sequence of RAC-alpha serine/threonine-protein kinase (Mus musculus) (P31750 whole entry): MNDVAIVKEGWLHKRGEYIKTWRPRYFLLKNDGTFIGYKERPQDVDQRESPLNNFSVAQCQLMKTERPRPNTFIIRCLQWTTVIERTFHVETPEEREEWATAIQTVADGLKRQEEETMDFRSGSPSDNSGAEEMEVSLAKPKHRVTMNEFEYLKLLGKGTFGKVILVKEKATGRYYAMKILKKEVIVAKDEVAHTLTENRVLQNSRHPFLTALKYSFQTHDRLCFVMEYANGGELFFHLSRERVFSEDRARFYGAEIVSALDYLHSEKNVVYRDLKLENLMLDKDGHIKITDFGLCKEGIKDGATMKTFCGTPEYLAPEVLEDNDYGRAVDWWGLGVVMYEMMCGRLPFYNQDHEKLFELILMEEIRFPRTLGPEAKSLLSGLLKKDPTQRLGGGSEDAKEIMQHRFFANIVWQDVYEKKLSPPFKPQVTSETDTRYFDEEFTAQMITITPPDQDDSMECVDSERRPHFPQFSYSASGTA

COc1cc(CCc2cc(O)c(O)c(OC)c2)ccc1O
Activity [1]: Dde
Activity [2]: Active
inhibition [3]: Dde
Activity [4]: Active
inhibition [5]: Dde
inhibition [6]: Active
inhibition [7]: Active
Activity [8]: Active
Activity [9]: Active
inhibition [10]: Dde
Activity [11]: Active
Activity [12]: Active
Activity [13]: Active
Activity [14]: Dde
inhibition [15]: Active
Activity [16]: Toxic
Activity [17]: Active
inhibition [18]: Active
Activity [19]: Toxic
IC50 at 48 h [20]: 35.5 µM
Activity [21]: Active
inhibition [22]: Active
Activity [23]: Active
Activity [24]: Active
Activity [25]: Active
Activity [26]: Toxic
Activity [27]: Toxic
Activity [28]: Dde
Activity [29]: Active
inhibition [30]: Active
inhibition [31]: Dde
IC50 at 48 h ([32]; PCS-210-010 pre-adipocytes): 34.6 µM
Activity ([32]; pcs-210-010, 48 h, time 48 hrs): Toxic
Activity [33]: Active
Activity [34]: Active
Activity [35]: Active
